The results in this text go back to patent publication US8426345B2, “Method of drug design” (Alchemia Limited, priority 2005, dated 2013).

Each structure is given as a SMILES string.

In the test the target is T1, Human SST5 somatostatin receptor (Homo sapiens, UniProt P35346).
T1 construct: expressed in transfected cells; host or cells: HEK-293 EBNA cells (membranes)
The test can be described thus: Filter plate radio-ligand binding assay for SST5 receptor ([125I]SST-14 displacement). The settings on record: for % SST5 radio-ligand binding displaced at conc 0.25: conc 0.25 μM; for % SST5 radio-ligand binding displaced at conc 0.25 / % SST5 radio-ligand binding displaced at conc 1.0: 3P library; for % SST5 radio-ligand binding displaced at conc 1.0: conc 1.0 μM; for % SST5 radio-ligand binding displaced at conc 50: compound conc 50 μM; for % SST5 radio-ligand binding displaced at conc 50 / % SST5 radio-ligand binding displaced at conc 250 / % SST5 radio-ligand binding displaced at conc 500: 2P library; for % SST5 radio-ligand binding displaced at conc 250: compound conc 250 μM; for % SST5 radio-ligand binding displaced at conc 500: compound conc 500 μM.

T1 sequence (P35346 whole entry): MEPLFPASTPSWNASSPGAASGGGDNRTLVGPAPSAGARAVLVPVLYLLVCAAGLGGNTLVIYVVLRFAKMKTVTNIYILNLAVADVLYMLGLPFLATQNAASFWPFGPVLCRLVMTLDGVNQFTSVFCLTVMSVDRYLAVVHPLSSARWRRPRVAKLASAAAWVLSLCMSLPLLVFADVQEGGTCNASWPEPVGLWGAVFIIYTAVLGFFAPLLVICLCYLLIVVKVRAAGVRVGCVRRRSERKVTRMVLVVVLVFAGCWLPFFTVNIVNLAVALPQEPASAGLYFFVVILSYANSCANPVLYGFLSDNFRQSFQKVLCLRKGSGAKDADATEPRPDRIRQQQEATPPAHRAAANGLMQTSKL

Turning to `COC[C@H]1OC(OCc2ccc3ccccc3c2)[C@H](NC(=O)CCN)[C@@H](OCc2ccc(Cl)cc2)[C@@H]1O` (single isomer, unassigned) [Compound 89], the “% SST5 radio-ligand binding displaced at conc 0.25” value is listed as “− (% SST5 radio-ligand binding displaced at cone (μM) −<40%)” and the “% SST5 radio-ligand binding displaced at conc 1.0” value was “− (% SST5 radio-ligand binding displaced at cone (μM) −<40%)”.
Take `COC[C@H]1OC(OCc2ccc3ccccc3c2)[C@H](NC(=O)CCN)[C@@H](OCc2ccc(Cl)cc2)[C@@H]1O` (single isomer, unassigned) [Compound 90]: the “% SST5 radio-ligand binding displaced at conc 0.25” value is reported as “+ (% SST5 radio-ligand binding displaced at cone (μM) 60>+>40%)” and the “% SST5 radio-ligand binding displaced at conc 1.0” value is “++ (% SST5 radio-ligand binding displaced at conc (μM) >60%)”.
For the compound `COC[C@H]1OC(OCc2ccc3ccccc3c2)[C@H](NC(=O)CCN)[C@@H](OCc2ccc(-c3ccccc3)cc2)[C@@H]1O` (single isomer, unassigned) [Compound 91], the “% SST5 radio-ligand binding displaced at conc 0.25” value is “− (% SST5 radio-ligand binding displaced at cone (μM) −<40%)” and the “% SST5 radio-ligand binding displaced at conc 1.0” value was “− (% SST5 radio-ligand binding displaced at cone (μM) −<40%)”.
Take `COC[C@H]1OC(OCc2ccc3ccccc3c2)[C@H](NC(=O)CCN)[C@@H](OCc2ccc3ccccc3c2)[C@@H]1O` (single isomer, unassigned) [Compound 92]: the “% SST5 radio-ligand binding displaced at conc 0.25” value was “− (% SST5 radio-ligand binding displaced at cone (μM) −<40%)” and the “% SST5 radio-ligand binding displaced at conc 1.0” value is listed as “+ (% SST5 radio-ligand binding displaced at cone (μM) 60>+>40%)”.
The matching figures for `COC1C(O)C(COCc2ccc(Cl)cc2)OC(OCc2ccc3ccccc3c2)C1NC(=O)CCN` (single isomer, unassigned) [Compound 94]: “− (% SST5 radio-ligand binding displaced at cone (μM) −<40%)” and “− (% SST5 radio-ligand binding displaced at cone (μM) −<40%)”.
As for `CO[C@H]1[C@H](O)[C@@H](COCc2ccc(Cl)cc2)OC(OCc2ccc3ccccc3c2)[C@@H]1NC(=O)CCN` (single isomer, unassigned) [Compound 95], the “% SST5 radio-ligand binding displaced at conc 0.25” value is recorded as “− (% SST5 radio-ligand binding displaced at cone (μM) −<40%)” and the “% SST5 radio-ligand binding displaced at conc 1.0” value is “− (% SST5 radio-ligand binding displaced at cone (μM) −<40%)”.
With `CO[C@H]1[C@H](O)[C@@H](COCc2ccc(-c3ccccc3)cc2)OC(OCc2ccc3ccccc3c2)[C@@H]1NC(=O)CCN` (single isomer, unassigned) [Compound 96], the “% SST5 radio-ligand binding displaced at conc 0.25” value is given as “− (% SST5 radio-ligand binding displaced at cone (μM) −<40%)” and the “% SST5 radio-ligand binding displaced at conc 1.0” value is “− (% SST5 radio-ligand binding displaced at cone (μM) −<40%)”.
For `COC[C@H]1OC(OCc2ccc(Cl)cc2)[C@H](NC(=O)CN)[C@@H](OCc2ccccc2)[C@@H]1O` (single isomer, unassigned) [Compound 168], the “% SST5 radio-ligand binding displaced at conc 0.25” value is reported as “− (% SST5 radio-ligand binding displaced at cone (μM) −<40%)” and the “% SST5 radio-ligand binding displaced at conc 1.0” value was “− (% SST5 radio-ligand binding displaced at cone (μM) −<40%)”.
Regarding `COC[C@H]1OC(OCc2ccc(Cl)cc2)[C@H](NC(=O)CN)[C@@H](OCc2ccccc2)[C@@H]1O` (single isomer, unassigned) [Compound 169], the “% SST5 radio-ligand binding displaced at conc 0.25” value was “− (% SST5 radio-ligand binding displaced at cone (μM) −<40%)” and the “% SST5 radio-ligand binding displaced at conc 1.0” value was “− (% SST5 radio-ligand binding displaced at cone (μM) −<40%)”.
With `COC[C@H]1OC(OCc2ccc(Cl)cc2)[C@H](NC(=O)CN)[C@@H](OCc2ccc(Cl)cc2)[C@@H]1O` (single isomer, unassigned) [Compound 170], the “% SST5 radio-ligand binding displaced at conc 0.25” value was “− (% SST5 radio-ligand binding displaced at cone (μM) −<40%)” and the “% SST5 radio-ligand binding displaced at conc 1.0” value was “− (% SST5 radio-ligand binding displaced at cone (μM) −<40%)”.
With `COC[C@H]1OC(OCc2ccc(Cl)cc2)[C@H](NC(=O)CN)[C@@H](OCc2ccc(Cl)cc2)[C@@H]1O` (single isomer, unassigned) [Compound 171], the “% SST5 radio-ligand binding displaced at conc 0.25” value is reported as “− (% SST5 radio-ligand binding displaced at cone (μM) −<40%)” and the “% SST5 radio-ligand binding displaced at conc 1.0” value was “− (% SST5 radio-ligand binding displaced at cone (μM) −<40%)”.
As for `COC[C@H]1OC(OCc2ccc(Cl)cc2)[C@H](NC(=O)CN)[C@@H](OCc2ccc(-c3ccccc3)cc2)[C@@H]1O` (single isomer, unassigned) [Compound 172], the “% SST5 radio-ligand binding displaced at conc 0.25” value is listed as “− (% SST5 radio-ligand binding displaced at cone (μM) −<40%)” and the “% SST5 radio-ligand binding displaced at conc 1.0” value is recorded as “− (% SST5 radio-ligand binding displaced at cone (μM) −<40%)”.
Consider `COC[C@H]1O[C@H](OCc2ccc3ccccc3c2)[C@H](NC(=O)CCN)[C@@H](OC)[C@@H]1O` [Compound 5], for which the “% SST5 radio-ligand binding displaced at conc 50” value is reported as “− (% SST5 radio-ligand binding displaced at cone (μM) −<40%)”, the “% SST5 radio-ligand binding displaced at conc 250” value was “+ (% SST5 radio-ligand binding displaced at cone (μM) 60>+>40%)” and the “% SST5 radio-ligand binding displaced at conc 500” value is “++ (% SST5 radio-ligand binding displaced at conc (μM) >60%)”.
The matching figures for `COC[C@H]1O[C@H](OCc2ccc3ccccc3c2)[C@H](NC(=O)CCCN)[C@@H](OC)[C@@H]1O` [Compound 6]: “− (% SST5 radio-ligand binding displaced at cone (μM) −<40%)”, “+ (% SST5 radio-ligand binding displaced at cone (μM) 60>+>40%)” and “++ (% SST5 radio-ligand binding displaced at conc (μM) >60%)”.
On to `CO[C@H]1[C@H](O)[C@@H](COCc2ccc(Cl)cc2)O[C@@H](SC)[C@@H]1NC(=O)CN` [Compound 7], for which the “% SST5 radio-ligand binding displaced at conc 50” value was “− (% SST5 radio-ligand binding displaced at cone (μM) −<40%)”, the “% SST5 radio-ligand binding displaced at conc 250” value was “− (% SST5 radio-ligand binding displaced at cone (μM) −<40%)” and the “% SST5 radio-ligand binding displaced at conc 500” value is “− (% SST5 radio-ligand binding displaced at cone (μM) −<40%)”.
Turning to `CO[C@H]1[C@H](O)[C@@H](COCc2ccc3ccccc3c2)O[C@@H](SC)[C@@H]1NC(=O)CN` [Compound 8], the “% SST5 radio-ligand binding displaced at conc 50” value was “− (% SST5 radio-ligand binding displaced at cone (μM) −<40%)”, the “% SST5 radio-ligand binding displaced at conc 250” value is reported as “+ (% SST5 radio-ligand binding displaced at cone (μM) 60>+>40%)” and the “% SST5 radio-ligand binding displaced at conc 500” value is “++ (% SST5 radio-ligand binding displaced at conc (μM) >60%)”.
As to `COC[C@H]1O[C@@H](SC)[C@H](NC(=O)CN)[C@@H](OCc2ccc(Cl)cc2)[C@@H]1O` [Compound 9], the “% SST5 radio-ligand binding displaced at conc 50” value is listed as “− (% SST5 radio-ligand binding displaced at cone (μM) −<40%)”, the “% SST5 radio-ligand binding displaced at conc 250” value is reported as “− (% SST5 radio-ligand binding displaced at cone (μM) −<40%)” and the “% SST5 radio-ligand binding displaced at conc 500” value is on record as “− (% SST5 radio-ligand binding displaced at cone (μM) −<40%)”.
Turning to `COC[C@H]1O[C@@H](SC)[C@H](NC(=O)CN)[C@@H](OCc2ccc3ccccc3c2)[C@@H]1O` [Compound 10], the “% SST5 radio-ligand binding displaced at conc 50” value is listed as “− (% SST5 radio-ligand binding displaced at cone (μM) −<40%)”, the “% SST5 radio-ligand binding displaced at conc 250” value is “− (% SST5 radio-ligand binding displaced at cone (μM) −<40%)” and the “% SST5 radio-ligand binding displaced at conc 500” value is reported as “− (% SST5 radio-ligand binding displaced at cone (μM) −<40%)”.
Turning to `COC[C@H]1O[C@H](OCc2ccc(Cl)cc2)[C@H](NC(=O)CN)[C@@H](OC)[C@@H]1O` [Compound 11], the “% SST5 radio-ligand binding displaced at conc 50” value was “− (% SST5 radio-ligand binding displaced at cone (μM) −<40%)”, the “% SST5 radio-ligand binding displaced at conc 250” value is given as “− (% SST5 radio-ligand binding displaced at cone (μM) −<40%)” and the “% SST5 radio-ligand binding displaced at conc 500” value is reported as “− (% SST5 radio-ligand binding displaced at cone (μM) −<40%)”.
Consider `COC[C@H]1O[C@H](OCc2ccc3ccccc3c2)[C@H](NC(=O)CN)[C@@H](OC)[C@@H]1O` [Compound 12], for which the “% SST5 radio-ligand binding displaced at conc 50” value is “− (% SST5 radio-ligand binding displaced at cone (μM) −<40%)”, the “% SST5 radio-ligand binding displaced at conc 250” value is listed as “− (% SST5 radio-ligand binding displaced at cone (μM) −<40%)” and the “% SST5 radio-ligand binding displaced at conc 500” value is “− (% SST5 radio-ligand binding displaced at cone (μM) −<40%)”.
For the compound `COC[C@H]1O[C@@H](OCc2ccc(Cl)cc2)[C@H](NC(=O)CN)[C@@H](OC)[C@@H]1O` [Compound 13], the “% SST5 radio-ligand binding displaced at conc 50” value is reported as “− (% SST5 radio-ligand binding displaced at cone (μM) −<40%)”, the “% SST5 radio-ligand binding displaced at conc 250” value is listed as “− (% SST5 radio-ligand binding displaced at cone (μM) −<40%)” and the “% SST5 radio-ligand binding displaced at conc 500” value was “− (% SST5 radio-ligand binding displaced at cone (μM) −<40%)”.
As to `COC[C@H]1O[C@@H](OCc2ccc3ccccc3c2)[C@H](NC(=O)CN)[C@@H](OC)[C@@H]1O` [Compound 14], the “% SST5 radio-ligand binding displaced at conc 50” value is given as “− (% SST5 radio-ligand binding displaced at cone (μM) −<40%)”, the “% SST5 radio-ligand binding displaced at conc 250” value is “− (% SST5 radio-ligand binding displaced at cone (μM) −<40%)” and the “% SST5 radio-ligand binding displaced at conc 500” value was “− (% SST5 radio-ligand binding displaced at cone (μM) −<40%)”.
`CO[C@H]1[C@H](O)[C@@H](COCc2ccc(Cl)cc2)O[C@@H](SC)[C@@H]1NC(=O)CCN` [Compound 15]: the “% SST5 radio-ligand binding displaced at conc 50” value is recorded as “− (% SST5 radio-ligand binding displaced at cone (μM) −<40%)”, the “% SST5 radio-ligand binding displaced at conc 250” value was “− (% SST5 radio-ligand binding displaced at cone (μM) −<40%)” and the “% SST5 radio-ligand binding displaced at conc 500” value is given as “− (% SST5 radio-ligand binding displaced at cone (μM) −<40%)”.
`CO[C@H]1[C@H](O)[C@@H](COCc2ccc3ccccc3c2)O[C@@H](SC)[C@@H]1NC(=O)CCN` [Compound 16]: the “% SST5 radio-ligand binding displaced at conc 50” value is listed as “− (% SST5 radio-ligand binding displaced at cone (μM) −<40%)”, the “% SST5 radio-ligand binding displaced at conc 250” value is recorded as “− (% SST5 radio-ligand binding displaced at cone (μM) −<40%)” and the “% SST5 radio-ligand binding displaced at conc 500” value was “+ (% SST5 radio-ligand binding displaced at cone (μM) 60>+>40%)”.
